The record followed here is ChEMBL document CHEMBL1201862, “PubChem BioAssay data set” (2004).

Structures are written as SMILES. The source made the active and inactive calls.

Among the targets are Cytochrome P450 2C9 (Homo sapiens, UniProt P11712); Cytochrome P450 3A4 (Homo sapiens, UniProt P08684); Cytochrome P450 2D6 (Homo sapiens, UniProt P10635).
The target of the next series is Cytochrome P450 2C19 (Homo sapiens, UniProt P33261). Description: Cytochrome panel assay with activity outcomes. Panel member name: p450-cyp2c19 Compounds with AC50 equal or less than 10 uM are considered active. Type of series: functional.
Chain of Cytochrome P450 2C19 (P33261 whole entry): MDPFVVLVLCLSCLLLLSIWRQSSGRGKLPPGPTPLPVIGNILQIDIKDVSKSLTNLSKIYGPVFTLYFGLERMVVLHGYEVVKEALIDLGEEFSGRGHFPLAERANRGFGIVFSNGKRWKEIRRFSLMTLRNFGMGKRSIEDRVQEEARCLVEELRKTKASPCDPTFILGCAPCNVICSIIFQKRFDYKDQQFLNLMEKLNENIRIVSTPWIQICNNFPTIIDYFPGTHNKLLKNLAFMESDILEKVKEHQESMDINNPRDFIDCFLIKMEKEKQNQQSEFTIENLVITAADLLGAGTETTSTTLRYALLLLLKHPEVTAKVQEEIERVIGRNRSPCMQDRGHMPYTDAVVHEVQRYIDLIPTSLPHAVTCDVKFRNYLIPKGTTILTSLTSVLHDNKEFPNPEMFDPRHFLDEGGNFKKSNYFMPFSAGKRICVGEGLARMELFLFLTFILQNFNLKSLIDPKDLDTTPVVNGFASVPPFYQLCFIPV
Another series addresses T1, Cytochrome P450 1A2 (Homo sapiens, UniProt P05177).
T1 sequence (P05177 whole entry): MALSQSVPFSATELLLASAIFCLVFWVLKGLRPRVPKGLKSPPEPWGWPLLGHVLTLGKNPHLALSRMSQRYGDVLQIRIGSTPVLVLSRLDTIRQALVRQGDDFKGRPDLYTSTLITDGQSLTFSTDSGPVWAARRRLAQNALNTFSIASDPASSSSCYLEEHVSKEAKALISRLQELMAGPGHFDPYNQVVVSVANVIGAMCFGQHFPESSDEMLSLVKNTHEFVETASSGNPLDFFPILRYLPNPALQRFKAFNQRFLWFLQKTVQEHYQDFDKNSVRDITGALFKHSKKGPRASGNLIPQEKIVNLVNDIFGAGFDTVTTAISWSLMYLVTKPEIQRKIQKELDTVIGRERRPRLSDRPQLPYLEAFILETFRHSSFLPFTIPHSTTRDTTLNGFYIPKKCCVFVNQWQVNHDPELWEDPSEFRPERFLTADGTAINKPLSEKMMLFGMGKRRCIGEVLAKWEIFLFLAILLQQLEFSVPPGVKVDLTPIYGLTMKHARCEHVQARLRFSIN

The nature of series [1]: Luminescence Cell-Based Dose Response HTS to Identify Activators of Luciferase Translation or Activity in H4 […] Cells. [Related pubchem assays: 1829 (Project Summary), 1814 (Primary HTS)]. The class given is functional.
A short description of series [2]: Luminescence Cell-Based Dose Confirmation HTS to Identify Activators of 5'UTR Stem-Loop Driven Alpha-Synuclein mRNA Translation in H4 Neuroglioblastoma Cells. [Related pubchem assays: 1829 (Project Summary), 1814 (Primary HTS)]. Type of series: functional.
The subject of the next series is H4. Description: Luminescence Cell-Based Dose Response HTS to Identify Activators of 5'UTR Stem-Loop Driven Prion Protein mRNA Translation in H4 Neuroglioblastoma Cells. [Related pubchem assays: 1829 (Project Summary), 1814 (Primary HTS)]. Type of series: functional. As to conditions: Homo sapiens.

Chain of Cytochrome P450 2C9 (P11712 whole entry): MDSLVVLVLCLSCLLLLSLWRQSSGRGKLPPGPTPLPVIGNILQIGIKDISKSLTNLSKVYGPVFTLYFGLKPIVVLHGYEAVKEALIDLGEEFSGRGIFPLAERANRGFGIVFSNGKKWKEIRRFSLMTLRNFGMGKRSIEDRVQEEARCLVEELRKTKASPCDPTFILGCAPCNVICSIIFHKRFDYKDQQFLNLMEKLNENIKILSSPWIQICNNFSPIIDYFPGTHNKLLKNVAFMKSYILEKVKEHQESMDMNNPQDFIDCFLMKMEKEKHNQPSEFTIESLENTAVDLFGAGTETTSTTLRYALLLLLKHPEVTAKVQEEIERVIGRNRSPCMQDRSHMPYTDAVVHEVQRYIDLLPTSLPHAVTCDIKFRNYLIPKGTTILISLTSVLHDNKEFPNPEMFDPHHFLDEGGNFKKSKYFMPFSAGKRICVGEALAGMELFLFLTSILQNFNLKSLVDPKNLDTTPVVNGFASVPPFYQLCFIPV
Chain of Cytochrome P450 2D6 (P10635 whole entry): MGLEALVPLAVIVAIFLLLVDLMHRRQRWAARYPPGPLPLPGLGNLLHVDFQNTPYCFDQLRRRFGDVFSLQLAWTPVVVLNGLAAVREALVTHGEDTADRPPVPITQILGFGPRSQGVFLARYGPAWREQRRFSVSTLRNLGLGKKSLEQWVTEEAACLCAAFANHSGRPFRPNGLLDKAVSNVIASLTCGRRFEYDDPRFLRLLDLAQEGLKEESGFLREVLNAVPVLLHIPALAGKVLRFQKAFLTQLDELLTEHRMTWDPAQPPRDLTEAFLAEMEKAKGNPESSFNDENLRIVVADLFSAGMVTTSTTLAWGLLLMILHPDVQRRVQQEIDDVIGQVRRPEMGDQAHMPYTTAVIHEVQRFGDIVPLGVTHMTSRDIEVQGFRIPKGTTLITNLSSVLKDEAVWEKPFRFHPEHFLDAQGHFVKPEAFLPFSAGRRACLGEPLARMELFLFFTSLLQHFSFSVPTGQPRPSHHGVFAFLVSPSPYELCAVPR
Chain of Cytochrome P450 3A4 (P08684 whole entry): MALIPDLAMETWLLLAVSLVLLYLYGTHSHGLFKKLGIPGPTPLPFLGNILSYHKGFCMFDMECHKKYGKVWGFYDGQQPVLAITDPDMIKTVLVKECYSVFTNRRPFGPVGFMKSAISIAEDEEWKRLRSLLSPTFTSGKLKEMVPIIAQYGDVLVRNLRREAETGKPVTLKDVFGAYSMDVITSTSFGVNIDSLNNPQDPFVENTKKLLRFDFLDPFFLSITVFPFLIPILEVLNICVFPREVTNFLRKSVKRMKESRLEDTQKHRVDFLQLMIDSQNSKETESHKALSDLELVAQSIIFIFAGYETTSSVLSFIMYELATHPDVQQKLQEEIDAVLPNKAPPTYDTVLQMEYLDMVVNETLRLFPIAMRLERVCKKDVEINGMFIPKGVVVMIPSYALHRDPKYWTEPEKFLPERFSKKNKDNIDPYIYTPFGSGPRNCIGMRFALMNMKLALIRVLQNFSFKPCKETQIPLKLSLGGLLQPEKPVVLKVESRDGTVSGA

Broadly, the AC50 is the midpoint of the concentration-response curve, whichever way the signal moves. Take `CNC(=O)c1cc2c(cn1)[nH]c1ccccc12`: the AC50 at Cytochrome P450 2C9 was 31.6 µM (inconclusive); at Cytochrome P450 3A4, 39.8 µM (inconclusive); on Cytochrome P450 2C19 it was “inconclusive”.
Turning to `COC(=O)C1(Cc2ccccc2)C=C2C(=C(C(C)C)C(=O)C2C)CN1` (stereo not drawn), the AC50 on Cytochrome P450 2C9 is 31.6 µM (inconclusive); on Cytochrome P450 1A2, 15.8 µM (inconclusive); on Cytochrome P450 2C19 (read-out: AC50), 39.8 µM (inconclusive).
What is called EC50 is the midpoint of the concentration-response curve. With `NC(=O)C1CC(=O)N(c2ccc(OCc3ccc(Cl)cc3)cc2)C1` (stereo not drawn), the EC50 in series [1] was 42.6 µM (active); in series [2] it was 19.2 µM (active).
As for `O=C1C[C@H]2[C@H](CO)[C@@H](OC(=O)c3ccc(-c4ccccc4)cc3)C[C@H]2O1`, the EC50 was 16.9 µM (active) in series [1], 12.8 µM (active) in series [2] and 69.8 µM (active) with H4.
Regarding `CC(C)=NOCc1cccc(-c2cc(-c3ccccc3)no2)c1`, the AC50 on Cytochrome P450 3A4 is 6.31 µM (inconclusive).
Turning to `C(=C/c1ccccc1)/C=N/c1ccc2c(c1)Cc1ccccc1-2`, the AC50 at Cytochrome P450 3A4 is 3.98 µM (inconclusive).
As for `COc1ccc(C2SCC(=O)Nc3c2c(C)nn3-c2ccccc2)cc1OC` (stereo not drawn), the AC50 on Cytochrome P450 1A2 is 22.4 µM (inconclusive); on Cytochrome P450 3A4, 12.6 µM (inconclusive).
In the case of `CCOc1ccc2nc(NC(=O)CSc3nnc(-c4ccncc4)n3CC3CCCO3)sc2c1` (stereo not drawn), the EC50 was 8.04 µM (active) in series [1], 7.45 µM (active) in series [2] and 11.8 µM (active) with H4.
In the same order, the values of `CC(Sc1nncn1C)C(=O)Nc1nnc(-c2ccccc2)s1` (stereo not drawn) are 25 µM (active), 19.1 µM (active) and 17.5 µM (active).
Take `CCCCNc1nc(SC)nc2[nH]cnc12`: the AC50 at Cytochrome P450 2D6 was 2.51 µM (inconclusive); on Cytochrome P450 3A4, 3.16 µM (inconclusive); on Cytochrome P450 2C19 (read-out: AC50), 3.16 µM (inconclusive).
For the compound `COCCn1c(=O)c(-c2ccc(Cl)cc2)nc2cncnc21`, the AC50 on Cytochrome P450 2C9 was 31.6 µM (inconclusive); at Cytochrome P450 3A4, 12.6 µM (inconclusive); on Cytochrome P450 2C19 (read-out: AC50) it was 39.8 µM (inconclusive).
Consider `Fc1ccc(-c2csc(N3CCC(c4ccccc4)C3)n2)cc1` (stereo not drawn), for which, on Cytochrome P450 3A4, the AC50 is 28.2 µM (inconclusive).
Turning to `COc1ccc(-c2cc(C(=O)Nc3cccc(Cl)c3)no2)cc1`, in the series with H4, the concentration giving a half-maximal response (EC50) is 0.184 µM (active).
As for `CCOc1ccc(-c2nnc(-c3ccncc3)o2)cc1`, the AC50 on Cytochrome P450 3A4 was 1.58 µM (inconclusive).
As for `Cc1cc(C)c(C(N)=O)c(SCC(=O)c2ccc(Cl)cc2)n1`, the AC50 is 15.8 µM (inconclusive) at Cytochrome P450 1A2 and 31.6 µM (inconclusive) at Cytochrome P450 3A4.
The like results for `CCNc1ncc2nc(-c3cccc(C#N)c3)c(=O)n(CCC#N)c2n1` were, in that order, 0.631 µM (inconclusive) and 7.94 µM (inconclusive).
Consider `CC(C)(C)CC(C)(C)c1ccc(O)c(C[N+](C)(C)[O-])c1`, for which the AC50 was 7.94 µM (inconclusive) on Cytochrome P450 2D6 and 5.01 µM (inconclusive) at Cytochrome P450 3A4.
As to `CCOC(=O)c1c(C)n(C)c2ccc(OC)c(NC(=O)CN3CCCCC3)c12`, the concentration at half-maximal activity (AC50) on Cytochrome P450 2D6 was 20 µM (inconclusive); on Cytochrome P450 3A4, 14.1 µM (inconclusive); at Cytochrome P450 2C19 (read-out: AC50), 11.2 µM (inconclusive).
For `CCCCN(C(S)=Nc1ccccc1)C1CCS(=O)(=O)C1` (stereo not drawn), the AC50 at Cytochrome P450 3A4 is 22.4 µM (inconclusive).
With `Cc1onc(-c2ccccc2)c1C(=O)NC(CC(=O)O)c1ccc(OC(C)C)cc1` (stereo not drawn), the figures for the AC50 at Cytochrome P450 2C9, at Cytochrome P450 3A4 and on Cytochrome P450 2C19 (read-out: AC50) were 15.8 µM (inconclusive), 28.2 µM (inconclusive) and 7.08 µM (inconclusive), respectively.
In the case of `Cc1ccc(NC(=S)N2CCN(C3CCCCC3)CC2)cc1`, at Cytochrome P450 3A4, the AC50 is 10 µM (inconclusive).
In the case of `C(=N\n1cnnc1)/c1cccn1-c1ccccc1`, the figures for the AC50 at Cytochrome P450 3A4 and on Cytochrome P450 2C19 (read-out: AC50) were 39.8 µM (inconclusive) and 0.0251 µM (inconclusive), respectively.
Consider `COc1ccc(-c2coc3cc(OC)cc(O)c3c2=O)cc1` [4',7-DIMETHOXY-5-HYDROXYGENISTEIN], for which the AC50 is 2.82 µM (inconclusive) at Cytochrome P450 2C9 and 25.1 µM (inconclusive) at Cytochrome P450 2C19 (read-out: AC50).
